Data taken from article PMC10480161, “Identification of potent and selective N-myristoyltransferase inhibitors of Plasmodium vivax liver stage hypnozoites and schizonts” (Nature Communications, 2023).
Where “and” joins values, the source holds several entries; their conditions need not be identical. Equal values may be shown once. Read-outs that look alike come from different tables or passages of the source.

Legend:
PvNMT = PvNMT (Plasmodium vivax, UniProt A5K1A2); assay: NMT activity assay (CPM detection of free CoA), PvNMT; details: for SI: enzyme selectivity, HsNMT IC50/PvNMT IC50
Chain of PvNMT (A5K1A2 entry or part of it): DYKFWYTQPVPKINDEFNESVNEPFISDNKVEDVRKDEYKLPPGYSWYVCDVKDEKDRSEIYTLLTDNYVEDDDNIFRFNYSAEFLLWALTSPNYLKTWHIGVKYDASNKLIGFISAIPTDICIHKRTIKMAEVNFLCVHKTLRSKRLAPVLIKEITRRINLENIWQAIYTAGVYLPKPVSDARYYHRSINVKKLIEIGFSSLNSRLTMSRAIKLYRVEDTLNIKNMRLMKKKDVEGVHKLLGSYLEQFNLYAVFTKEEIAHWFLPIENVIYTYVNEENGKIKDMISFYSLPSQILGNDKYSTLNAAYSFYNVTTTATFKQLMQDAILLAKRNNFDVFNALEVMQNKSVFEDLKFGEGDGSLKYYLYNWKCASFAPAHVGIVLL

HsNMT1 = molecular target: T1, HsNMT1 (Homo sapiens, UniProt P30419); assay: NMT activity assay (CPM detection of free CoA), HsNMT
T1 sequence (P30419 1-496): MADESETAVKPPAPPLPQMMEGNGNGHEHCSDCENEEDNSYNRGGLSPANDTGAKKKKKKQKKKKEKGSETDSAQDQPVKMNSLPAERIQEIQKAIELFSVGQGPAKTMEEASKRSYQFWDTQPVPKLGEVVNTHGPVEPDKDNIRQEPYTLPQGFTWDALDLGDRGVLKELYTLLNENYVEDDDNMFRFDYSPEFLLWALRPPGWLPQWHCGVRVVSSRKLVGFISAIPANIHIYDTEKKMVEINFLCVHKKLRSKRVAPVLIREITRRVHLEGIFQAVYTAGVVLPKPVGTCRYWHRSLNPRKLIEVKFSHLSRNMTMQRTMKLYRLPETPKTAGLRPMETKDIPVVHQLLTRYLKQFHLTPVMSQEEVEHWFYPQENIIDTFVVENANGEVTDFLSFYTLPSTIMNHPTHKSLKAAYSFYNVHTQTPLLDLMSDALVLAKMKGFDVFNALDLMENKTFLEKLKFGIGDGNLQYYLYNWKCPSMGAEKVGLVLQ

P. vivax schizonts = assay: P. vivax liver stage assay, schizonts; format: cell-based, Plasmodium vivax; details: 20 µM; for Number of liverstage Schizonts per well: 8 dpi, listed as Pi4K
Method: We next evaluated the candidate compounds against liver-stage P. vivax (Fig. 5). P. vivax sporozoites were obtained from three independent patient isolates and cultured in primary human hepatocytes from a single donor lot using a 384-well microculture system as described previously. Cells were infected and treated with NMTis at 20 µM beginning day 5 post-infection until day 8 when the infection rates were quantified by fluorescent microscopy.
Accordingly, we applied dose–response curves of all the tested NMTs on parasite isolates 2 and 3 over concentrations up to 20 µM (Fig. 5c, d, Source Data file). We observed similar kinetics for all inhibitors, with a gradual decrease in parasite load upon increasing the drug concentration. […] Nuclei were counted in each well using DAPI staining as a measure of toxicity (Supplementary Fig. 86, Supplementary Source data). We used the phosphatidylinositol 4-kinase inhibitor (PI4Ki), MMV390048, as a positive control for eliminating schizonts[37],[38].
Plasmodium vivax liver stage assays were performed as described previously. Cryopreserved primary human hepatocytes (Cat No. F00995-P) and hepatocyte culture medium (HCM) (InVitroGroTM CP Medium) were obtained from Bioreclamation IVT, Inc., (Baltimore, MD, USA). Briefly, we seeded 384-well plates with primary hepatocytes from a single donor lot at a density of 25,000 cells per well. We then infected the hepatocytes with 14,000 freshly hand-dissected sporozoites per well. Cells were exposed to the compounds at indicated concentrations from day 5 post-infection. We used Pi4K inhibitor MMV390048, at 20 µM, as a positive control to eliminate P. vivax liver schizonts. We then proceeded to feed cultures every day, replacing the compounds until day 8 post-infection. Cells were fixed with 4% PFA, permeabilized with 1% Triton X-100, blocked with 2% BSA, and stained with DAPI and PvUIS4 antibodies to detect schizonts and hypnozoites forms by confocal microscopy. For antibody dilutions, PvUIS4 (kind gift from Dr. Noah Sather, Seattle Children’s Research Institute) was diluted 1:250 and the secondary antibody was anti-mouse AlexaFluor-594 (Cat # A-11005; RRID: AB_2534073) diluted 1:1000. DAPI was diluted 1:2000. The images were processed, analyzed and outlier cells were removed using IMARIS (Bitplane Inc.) image analysis software.

HepG2 cells = assay: HepG2 cytotoxicity assay (Live/Dead staining); details: for Percentage of live HepG2 cells compared with diluent controls: replicates
Method: Therefore, we assessed cytotoxicity in the human hepatoma HepG2 cell line. We required a PvNMT to HsNMT SI > 20 for further screening. HepG2 cells were exposed to the compounds at concentrations ranging from 1 to 20 µM for […], and toxicity was assessed via live-dead staining.
The viability of the HepG2 cell line following exposure to the compounds was determined by a Live/Dead cell assay kit (Invitrogen). Briefly, cells were added to a 96-well plate at a concentration of 5000 cells per well, excluding the exterior wells. Cells were exposed to the compounds at different concentrations ranging from 1 to 20 µM. Cells were washed every 24 h and supplemented with fresh doses of compounds. At 72 h post-treatment, 1 µM calcein-AM and 1 µM ethidium homodimer were added to the wells and incubated for 10 min at 37 °C. After washing with PBS, the cells were visualized with fluorescent microscopy (Keyence BZ-X700).

[1] = PvNMT IC50, mean of two or more determinations
[2] = read-out: PvNMT IC50, mean of two or more determinations
[3] = read-out: HsNMT IC50, mean of two or more determinations

## Cc1nn(C)c(C)c1CCOc1ccccc1-c1ccnc(N2CCNCC2)c1 [Compound 12c]
PvNMT; [1]
  IC50: 0.00948 µM
PvNMT
  SI: 63.1
HsNMT1
  IC50: 0.599 µM

## c1cncc(CCOc2cccnc2-c2ccnc(N3CCNCC3)c2)c1 [Compound 12h]
PvNMT; [1]
  IC50: 0.441 µM

## c1cncc(CCOc2ccccc2-c2cccc(N3CCNCC3)c2)c1 [Compound 12i]
PvNMT; [1]
  IC50: 1.54 µM

## Fc1ccc(-c2cccc(N3CCNCC3)c2)c(OCCc2cccnc2)c1 [Compound 12k]
PvNMT; [1]
  IC50: 3.12 µM

## Cc1n[nH]c(C)c1CCOc1cccnc1-c1cccc(N2CCNCC2)c1 [Compound 12m]
PvNMT; [1]
  IC50: 12.5 µM

## Cc1n[nH]c(C)c1CCOc1ccccc1-c1ccnc(N2CCNCC2)c1 [Compound 12n]
PvNMT; [1]
  IC50: 0.604 µM
PvNMT
  SI: 65.7
HsNMT1
  IC50: 39.7 µM

## Cc1n[nH]c(C)c1CCOc1cccnc1-c1ccnc(N2CCNCC2)c1 [Compound 12o]
PvNMT; [2]
  IC50: 3.12 µM

## Cc1n[nH]c(C)c1CCOc1cc(F)ccc1-c1cccc(N2CCNCC2)c1 [Compound 12p]
PvNMT; [1]
  IC50: 0.368 µM
PvNMT
  SI: 62.7
HsNMT1
  IC50: 23.1 µM

## Cc1nn(C)c(C)c1CCOc1ccccc1-c1cc(N2CCNCC2)ncn1 [Compound 16a]
PvNMT; [1]
  IC50: 9.39 µM

## Cc1nn(C)c(C)c1CCOc1cc(F)ccc1-c1cc(N2CCNCC2)ncn1 [Compound 16b]
PvNMT
  SI: 164 and 164.4
PvNMT; [2]
  IC50: 0.168 µM
HsNMT1; [3]
  IC50: 27.6 µM

## Fc1ccc(-c2cc(N3CCNCC3)ncn2)c(OCCc2cccnc2)c1 [Compound 16d]
PvNMT; [1]
  IC50: 3.39 µM

## Cc1n[nH]c(C)c1CCOc1cc(F)ccc1-c1cc(N2CCNCC2)ncn1 [Compound 16e]
PvNMT; [2]
  IC50: 5.07 µM

## Cc1n[nH]c(C)c1CCOc1ccccc1-c1cc(N2CCNCC2)ncn1 [Compound 16f]
PvNMT; [1]
  IC50: 14 µM

## Cc1nn(C)c(C)c1CCOc1cccnc1-c1cccc(OCCN(C)C)c1 [Compound 26a]
PvNMT; [1]
  IC50: 0.266 µM

## CN(C)CCOc1cccc(-c2ncccc2OCCc2cccnc2)c1 [Compound 26d]
PvNMT; [1]
  IC50: 14.8 µM

## CN(C)CCOc1cccc(-c2ccccc2OCCc2cccnc2)c1 [Compound 26e]
PvNMT; [1]
  IC50: 12.8 µM

## CN(C)CCOc1cccc(-c2ccc(F)cc2OCCc2cccnc2)c1 [Compound 26f]
PvNMT; [2]
  IC50: 0.622 µM
HsNMT1; [3]
  IC50: > 40 µM

## Cc1n[nH]c(C)c1CCOc1cccnc1-c1cccc(OCCN(C)C)c1 [Compound 26g]
PvNMT; [1]
  IC50: 19.4 µM

## Cc1n[nH]c(C)c1CCOc1ccccc1-c1cccc(OCCN(C)C)c1 [Compound 26h]
PvNMT; [1]
  IC50: 1.56 µM

## Cc1nn(C)c(C)c1CCOc1ccc2ccccc2c1-c1cccc(OCCN(C)C)c1 [Compound 30b]
PvNMT; [1]
  IC50: 19.8 µM

## CN(C)CCOc1cccc(-c2c(OCCc3cccnc3)ccc3ccccc23)c1 [Compound 30d]
PvNMT; [1]
  IC50: 7.21 µM

## Cc1n[nH]c(C)c1CCOc1ccc2ccccc2c1-c1ccnc(N2CCNCC2)c1 [Compound 30e]
PvNMT; [1]
  IC50: 2.88 µM

## Cc1n[nH]c(C)c1CCOc1ccc2ccccc2c1-c1cccc(OCCN(C)C)c1 [Compound 30f]
PvNMT; [1]
  IC50: 25.4 µM

## CS(=O)(=O)c1ccc(-c2cnc(N)c(-c3ccc(C(F)(F)F)nc3)c2)cc1 [MMV390048, reference compound]
P. vivax schizonts; isolate 2, technical replicates (Fig. 5b)
  Number of liverstage Schizonts per well: 0 per well and 1 per well (2×)
P. vivax schizonts; isolate 3, technical replicates (Fig. 5b)
  Number of liverstage Schizonts per well: 2 per well and 1 per well
P. vivax schizonts; positive control
  number of schizonts per well (in words): dramatically reduced the number of schizonts per well

## CN[C@@H]1C[C@H]2O[C@@](C)([C@@H]1OC)n1c3ccccc3c3c4c(c5c6ccccc6n2c5c31)C(=O)NC4 [staurosporine, Staurosporine, reference compound]
HepG2 cells; 1 μM
  Percentage of live HepG2 cells compared with diluent controls: 95.8547% and 101.587%
HepG2 cells; 2.5 μM
  Percentage of live HepG2 cells compared with diluent controls: 98.2188% and 92.7655%
HepG2 cells; 5 μM
  Percentage of live HepG2 cells compared with diluent controls: 90.1576% and 84.8522%
HepG2 cells; 10 μM
  Percentage of live HepG2 cells compared with diluent controls: 76.1985% and 71.2598%
HepG2 cells; 20 μM
  Percentage of live HepG2 cells compared with diluent controls: 50.831% and 59.1843%
HepG2 cells; at 10–20 µM, positive control
  HepG2 cell viability (in words): reduced the cell viability
